In patent publication US20240409536A1, “COMPOUNDS AND METHODS FOR MODULATING SPLICING” (REMIX THERAPEUTICS INC., priority 2021, published 2024):

How the values were obtained:
[1] = tested on: SMN2 mRNA; experiment: Gene panel canonical junction qPCR assay, SMN2 CJ mRNA decrease; assay type: cell-based, human; conditions: Homo sapiens, canonical junction qPCR, read-out: SMN2 IC50 (decrease in CJ mRNA levels)
Method in brief: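 IC50 values describe loss of canonical-junction transcript, fitted by 4-parameter logistic to percent response derived from fixed ΔCt windows. Read-out: RT-qPCR on lysates of compound-treated K562 or A673 cells, probes overlapping the exon junction, ΔΔCt versus housekeeping gene and DMSO control.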

[2] = tested on: HiBiT-tagged HTT protein; experiment: HiBiT protein abundance assay, HTT (K562 HiBiT knock-in cells); assay type: cell-based, human; conditions: 24 hours
Procedure: Compounds described herein were used to screen for effects on quantitative protein abundance using a HiBit assay system (Promega). Quantitative protein abundance was determined by measuring the protein levels of HiBit-tagged protein targets expressed in cell culture via luminescence using the Nano-Glo HiBiT Lytic Detection System, which uses a split complementation assay format to reconstitute NanoBiT enzyme to generate a luminescent signal. A protein abundance assay was developed such that endogenous protein targets could be modified with the HiBiT peptide tag and their abundance could be assessed after compound treatment. Briefly, K562 cell lines containing a HiBiT-modification were treated with various compounds described herein (e.g., compounds of Formulas (I), (II), or (III)). After treatment for 24 hours, the protein abundance of a specific target was determined by measuring luminescence.
• Promega Nano-Glo HiBiT Lytic Detection System (cat #N3030) • Corning 384-well TC-treated microplates (cat #3570) • Synthego Engineered Cells Knock-In Clones
Cells were maintained in IMDM with 10% FBS. Before the assay, cells were diluted with […] growth media (IMDM+1% FBS media) and were seeded in a 384-well plate at a density of 10000 cells/well (for each cell line listed in Table 6). Each compound was prepared as a 10-point 3-fold serial dilution in DMSO with the top dose at a final concentration of 10 μM in the well. Unmodified K562 cells were added at the previously specified density with DMSO to serve as an assay baseline and positive control (PC) and DMSO only with the respective modified cell lines was added to the negative control (NC) columns. Final DMSO concentration was kept at or below 0.25%. Treated cell plates were placed in an incubator at 37° C. with 5% CO2 for 24 hours. After 24 hours, 25 μL of Complete HiBit Lytic reagent was added to each well at room temperature (e.g. one plate requiring 10 mL Lytic Buffer, 100 μL LgBiT Protein, 200 μL Lytic Substrate), shaken for 5 minutes at 600 RPM, then left to sit for 10 minutes for signal to stabilize before reading on a Spark Cyto plate reader (Tecan) with a 500 ms measurement time.
To determine compound effects on protein abundance of each target in Table 6, the percent response for each respective cell line was calculated at each compound concentration as follows:
For the normalized response at each concentration, a four-parameter logistical regression was fit to the data and the response was interpolated at the 50% value to determine a concentration for protein abundance at 50% (IC50) the untreated control.

[3] = tested on: K562 cells; experiment: Cell Titer Glo 2.0 cell viability assay in K562 cells; conditions: 72 hours
Procedure: Compounds described herein were screened for toxicity in K562 (human chronic myelogenous leukemia) and SH-SY5Y (human neuroblastoma) cells using a Cell Titer Glo 2.0 assay.
Cells were plated at 500 cells/well (K562 cells) in 45 μL of IMDM supplemented with 10% FBS in a 384-well opaque plate. Wells containing only medium were used as a blank control. Test compounds (e.g., compounds of Formula (I), (II), or (III)) were first serially diluted in DMSO then diluted 1:100 with IMDM+10% FBS. The final concentration of DMSO was 0.1% in each well. The cells were incubated for 72 hours at 37° C. and 5% CO2 before assaying with Cell Titer Glo 2.0 reagent.

Row | Structure (SMILES) | IC50 [1] [nM] | IC50 [2] [nM] | Viability [3]
1 | COc1nc2c(F)cc(NC(=O)c3ccc(N4C[C@@H](C)N[C@@H](C)C4)c4nccnc34)cc2o1 [Compound 342] | 100 to 1000 | > 10000 | C (C represents 1000-9999 nM)
2 | Cc1cn2cc(NC(=O)c3ccc(N4C[C@@H](C)N[C@@H](C)C4)c4cccnc34)cc(F)c2n1 [Compound 340] | < 100 | 1000 to 10000 | B (B represents 100-1000 nM)
3 | Cc1cn2cc(NC(=O)c3ccc(N4CCN[C@@H](CF)C4)c4nccnc34)cc(F)c2n1 [Compound 367] | 100 to 1000 | 1000 to 10000 | C (C represents 1000-9999 nM)
4 | COc1cn2cc(NC(=O)c3ccc(N4C[C@@H](C)N[C@@H](C)C4)c4nccnc34)cc(F)c2n1 [Compound 357] | 100 to 1000 | > 10000 | C (C represents 1000-9999 nM)
5 | COc1nc(NC(=O)c2ccc(N3C[C@@H](C)N[C@@H](C)C3)c3nccnc23)cn2cc(C)nc12 [Compound 277] | < 100 | 100 to 1000 | B (B represents 100-1000 nM)
6 | Cc1cn2cc(NC(=O)c3ccc(C4=CCNCC4)c4nccnc34)cc(F)c2n1 [Compound 240, N-{8-fluoro-2-methylimidazo[1,2-a]pyridin-6-yl}-8-(1,2,3,6-tetrahydropyridin-4-yl)quinoxaline-5-carboxamide] | < 100 | < 100 | 
7 | Cc1cn2cc(NC(=O)c3ccc(N4C[C@@H](C)N[C@H](C)C4)c4nccnc34)cc(F)c2n1 [Compound 312] | < 100 | 1000 to 10000 | 
8 | Cc1cn2cc(NC(=O)c3ccc(N4C[C@H](C)N[C@@H](C)C4)c4nccnc34)cc(F)c2n1 [Compound 313] | < 100 | 100 to 1000 | 
9 | Cc1cn2cc(NC(=O)c3ccc(N4C[C@@H](C)N(O)[C@@H](C)C4)c4nccnc34)cc(F)c2n1 [Compound 355] | < 100 | 1000 to 10000 | 
10 | Cc1cn2cc(NC(=O)c3ccc(N4C5CNCC54)c4nccnc34)cc(F)c2n1 (centres unmarked) [Compound 262, 8-{3,6-diazabicyclo[3.1.0]hexan-6-yl}-N-{8-fluoro-2-methylimidazo[1,2-a]pyridin-6-yl}quinoxaline-5-carboxamide] | < 100 | 100 to 1000 | 
11 | Cc1cn2nc(NC(=O)c3ccc(C4CCNCC4)c4ccnnc34)cc(C)c2n1 [Compound 113] | 100 to 1000 | 1000 to 10000 | 

Continued, in another order:

Row | IC50 [1] [nM] | IC50 [2] [nM] | Structure (SMILES) | Viability [3]
12 | < 100 | 100 to 1000 | Cc1cn2cc(NC(=O)c3ccc(N4C[C@@H](C)N[C@@H](C)C4)c4ncc(N(C)C)nc34)cc(F)c2n1 [Compound 283] | B (B represents 100-1000 nM)
13 | < 100 | 1000 to 10000 | Cc1cn2cc(NC(=O)c3ccc(NC4CCNC4)c4nccnc34)cc(F)c2n1 (centres unmarked) [Compound 316] | B (B represents 100-1000 nM)
14 | < 100 | 100 to 1000 | CCOc1cnc2c(N3C[C@@H](C)N[C@@H](C)C3)ccc(C(=O)Nc3cc(F)c4nc(C)cn4c3)c2n1 [Compound 296] | B (B represents 100-1000 nM)
15 | 100 to 1000 | 100 to 1000 | Cc1cn2nc(NC(=O)c3ccc(N4C[C@@H](C)N[C@@H](C)C4)c4nccnc34)cc2c(C)n1 [Compound 354] | B (B represents 100-1000 nM)
16 | > 10000 | > 10000 | Cc1cn2cc(NC(=O)c3ccc(N4C[C@@H](C)N[C@@H](C)C4)c4ncc(O)nc34)cc(F)c2n1 [Compound 275] | 
17 | < 100 | 1000 to 10000 | C[C@@H]1CN(c2ccc(C(=O)Nc3cc(F)c4nn(C)cc4c3)c3nccnc23)C[C@@H](C)N1 [Compound 335] | 
18 | < 100 | 100 to 1000 | COc1ncc2c(N3C[C@@H](C)N[C@@H](C)C3)ccc(C(=O)Nc3cc(F)c4nc(C)cn4c3)c2n1 [Compound 300] | 
19 | < 100 | 1000 to 10000 | Cc1cn2cc(NC(=O)c3ccc(N4C[C@@H](C)N[C@@H](C)C4)c4nccnc34)nc(Cl)c2n1 [Compound 279] | 
